Assays:
[1] = test system: skin; assay: skin cell-renewal (exfoliation) rate after topical application; assay type: in vivo, human
Experimental: (§1) Skin irritation, expressed as a “Sting” percentage, was also determined. The increase in skin cell renewal rate and irritation level was measured substantially according to the procedure described in Soap/Cosmetics/Chemical Specialties for September 1993 at pp. 54-58 and 76.

[2] = test system: skin; assay: skin irritation level (Sting %) after topical application; assay type: in vivo, human
Experimental: as §1

[3] = cited from earlier work
[4] = 0.5 wt % active, composition pH 5.65
[5] = 1.0 wt % active, composition pH 7.21

Row | Compound | Cell-Renewal Rate % ([1]; 5 wt % active, composition pH 3) [%] | Cell-Renewal Rate % [1, 4] [%] | Cell-Renewal Rate % [1, 5] [%] | Irritation Level (Sting %) [2, 4] [%] | Irritation Level (Sting %) [2, 5] [%] | irritation to the skin relative to Lactic Acid ([2]; at pH 7.21, relative to Lactic Acid) | times less irritating to the skin than Lactic Acid ([2]; relative to Lactic Acid 5 wt %, pH 3) | solubility in water [3]
1 | CC(O)C(=O)O (centres unmarked) [Lactic Acid, reference compound] | 31.7 | – | – | – | – | – | – | –
2 | Cc1c(C)c2c(c(C)c1OP(=O)(O)O)CC[C@@](C)(CCC[C@H](C)CCC[C@H](C)CCCC(C)C)O2 [VEP, Sodium Vitamin E Phosphate] | – | 15.2 | 16.6 | 17.3 | 10.7 | about one-twentieth | at least 4.5 times | soluble in water

— US6645514B1, “Increasing skin cell renewal with water-soluble Vitamin E” (Access Business Group International, LLC, priority 2002, dated 2003)
